These results are taken from US20210078958A1, “QUINAZOLINE DERIVATIVE AND USE THEREOF” (MEDSHINE DISCOVERY INC., priority 2017, published 2021).

The test system of one data set is OE19 cells. Briefly: CTG assay of OE19 cells. The format is cell-based. The settings on record: Homo sapiens, 72 hours of cell culture, Cell Titer Glo. The method, then: OE19 cells with saturation of 80%-90% were digested with trypsin, centrifuged, resuspended and counted. The concentration of cells was adjusted to […]. OE19 cells were added to a 96-well cell culture plate to 8000 OE19 cells per well. The cells were cultured in a cell incubator containing 5% CO2 at 37° C. overnight.
The stock solution of the test compounds was serially 3-fold diluted with DMSO to a total of 10 concentrations. Before the start of the assay, the serially diluted test compounds were further diluted to 10× compound solutions (the compound with a highest concentration contains 1% DMSO) with cell culture medium under sterile conditions. The prepared 10× compound solutions were added to the cell culture plate, and the 10 μL compound solution was added to each well. In this way, the final concentrations of staurosporine as the standard control and all the test compounds were obtained starting from […] as the initial concentration in a 3-fold serial dilution to get 10 test concentrations.
After 72 hours of cell culture, the 96-well cell culture plate was taken out. Cell Titer Glo reagent was added at […], mixed, centrifuged, and incubated at room temperature in the dark for 10 minutes. The cell plate was placed in Envision for reading.
The inhibition rate was calculated according to original data as follows:
Inhibition %=(ZPE−sample detection value)/(ZPE−HPE)×100%
The well containing 10 mM staurosporine on DAY3 (the first day of the assay is the day when compounds were added, and DAY3 is the day when reading is perfomed) was used as the HPE (100% inhibition control) well, and the well containing 0.1% DMSO on DAY3 was used as the ZPE (0% inhibition control) well. Each concentration of test compounds was tested in duplicate.
Non-linear regression analysis was performed using the processed data and GraphPad Prism 6 analysis software to obtain a dose-response curve, and the half-inhibitory concentration (IC50) of the test compounds on OE19 cells was calculated.

The next data set concerns OE21 cell. Briefly: inhibitory activity on cell proliferation (Cell-Titer-Glo), OE21. The class given is cell-based. To be noted: Homo sapiens, OE21, 72 h, incubation for 3 days. An excerpt: (§1) Purpose of the assay: to detect the inhibitory activity of the test compounds on cell proliferation.
(§2) Principle of the assay: the luciferase in a Cell-Titer-Glo reagent produces oxidized luciferin with luciferin, oxygen and ATP as reaction substrates, and releases energy in the form of light. Since the luciferase reaction requires ATP, the total amount of light generated by the reaction is proportional to the total amount of ATP that reflects cell viability.
(§3) Cell Titer-Glo cell viability assay kit with luminescence (Promega #G7573)
(§4) According to the schematic diagram of the cell seed plate, cells were seeded in a 384- or 96-well plate at a density of 1000 cells per well and 25 μL per well, and 25 μL of PBS was added to the wells near edge of the place where no cells were seeded.
(§5) (1) The stock solution of the compounds has a concentration of 10 mM, and the compounds were diluted with DMSO to an initial concentration of 4 mM. The compounds were added to the plate with stock solution of compounds, 9 μL per well.
(§6) (2) The compounds were diluted with an ECHO liquid workstation, where 125 nL of compounds were added to each well of the cell plate, 125 nL of DMSO was added to each of the cell well in columns 2 and 23, and 125 nL of DMSO was added to each PBS well in columns 1 and 24.
(§7) 2.3 After addition of the compounds, the cell plate was centrifuged at 1000 rpm for 1 min, and then placed in a 37° C., 5% CO2 incubator for incubation for 3 days.
(§8) The cell plate was taken out from the incubator and equilibrated at room temperature for 30 minutes. 25 μL of Cell-Titer-Glo reagent was added to each well, shaken for one minute to allow well mixed, and centrifuged at 1000 rpm for 1 minute. After 10 minutes, the plate was read on PerkinElmer Envision, and the […] reading time was set to 0.2 second.

A further data set concerns NCI-N87 cell. Briefly: inhibitory activity on cell proliferation (Cell-Titer-Glo), NCI-N87. The class given is cell-based. To be noted: Homo sapiens, NCI-N87, 72 h; incubation for 3 days, Cell-Titer-Glo.
From the text: as §1, §2, §3, §4, §5, §6, §7, §8

The target of a further data set is T1, CYP3A4 (Homo sapiens, UniProt P08684).
T1 construct: in the assay of CYP enzyme activity in human liver microsome; from tissue; host or cells: human liver microsome
T1 sequence (P08684 whole entry): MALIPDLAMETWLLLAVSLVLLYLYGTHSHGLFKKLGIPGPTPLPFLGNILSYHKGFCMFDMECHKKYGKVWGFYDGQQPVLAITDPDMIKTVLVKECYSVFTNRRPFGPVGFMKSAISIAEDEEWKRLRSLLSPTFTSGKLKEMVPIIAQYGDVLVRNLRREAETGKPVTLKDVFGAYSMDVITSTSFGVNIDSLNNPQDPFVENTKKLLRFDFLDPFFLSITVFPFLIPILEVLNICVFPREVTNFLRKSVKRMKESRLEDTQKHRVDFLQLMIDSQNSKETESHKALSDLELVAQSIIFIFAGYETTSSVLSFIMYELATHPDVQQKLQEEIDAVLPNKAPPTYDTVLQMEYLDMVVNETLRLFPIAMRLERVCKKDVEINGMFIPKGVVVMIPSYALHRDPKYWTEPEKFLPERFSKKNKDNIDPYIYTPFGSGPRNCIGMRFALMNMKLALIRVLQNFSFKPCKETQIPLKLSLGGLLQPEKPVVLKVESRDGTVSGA
Briefly: inhibition of CYP enzyme activity in human liver microsome, CYP3A4. The class given is in vitro ADME. The text has this: (§9) The results of the compounds disclosed herein and the reference compound Poziotinib in the assay of CYP enzyme activity in human liver microsome were shown in the following table (Table 8).

A short description of data set [1]: Assay Example 7: pharmacokinetics in mice. The settings on record: mouse, female BALB/c mice, plasma, dose not given; for Tmax / half-life: oral; for AUC(0-t) / Cmax: oral plasma exposure. The format is in vivo. The method, then:
Purpose of the assay: this assay aims to investigate in vivo plasma pharmacokinetics of the example compounds disclosed herein and the reference compound in female BALB/c mice after the single intravenous injection and intragastric administration thereof.
Animals of the assay: female BALB/c nude mice, 7-9 weeks old, weighted 17-23 grams; supplier: shanghai sippr bk laboratory animals Ltd.
Sample collection: at each time point, a 0.03 mL blood sample was collected from the saphenous vein of the test animal by puncture, and the actual blood collection time was recorded. All blood samples were added into commercial EDTA-K2 anticoagulation tubes with a specification of 1.5 mL (the supplier was Jiangsu KANGJIAN Medical Apparatus Co., Ltd.). Within half an hour after the blood sample was collected, the blood sample was centrifuged at 3000 g at 4° C. for 10 minutes, and the supernatant plasma was drawn, quickly placed in dry ice, and stored in a refrigerator at −80° C. for LC-MS/MS analysis.
Data analysis: Plasma concentrations were processed using a non-compartmental model of WinNonlin™ Version6.3 (Pharsight, MountainView, Calif.) pharmacokinetic software, and pharmacokinetic parameters Cmax, Tmax, T1/2, and AUC0-last were calculated using a linear log trapezoid method.

Another data set addresses T2, CYP2C19 (Homo sapiens, UniProt P33261).
T2 construct: in the assay of CYP enzyme activity in human liver microsome; from tissue; host or cells: human liver microsome
Briefly: inhibition of CYP enzyme activity in human liver microsome, CYP2C19. The class given is in vitro ADME.
From the text: as §9

A further data set concerns the target T3, CYP2D6 (Homo sapiens, UniProt P10635).
T3 construct: in the assay of CYP enzyme activity in human liver microsome; from tissue; host or cells: human liver microsome
Briefly: inhibition of CYP enzyme activity in human liver microsome, CYP2D6. The format is in vitro ADME.
From the text: as §9

T2 sequence (P33261 whole entry): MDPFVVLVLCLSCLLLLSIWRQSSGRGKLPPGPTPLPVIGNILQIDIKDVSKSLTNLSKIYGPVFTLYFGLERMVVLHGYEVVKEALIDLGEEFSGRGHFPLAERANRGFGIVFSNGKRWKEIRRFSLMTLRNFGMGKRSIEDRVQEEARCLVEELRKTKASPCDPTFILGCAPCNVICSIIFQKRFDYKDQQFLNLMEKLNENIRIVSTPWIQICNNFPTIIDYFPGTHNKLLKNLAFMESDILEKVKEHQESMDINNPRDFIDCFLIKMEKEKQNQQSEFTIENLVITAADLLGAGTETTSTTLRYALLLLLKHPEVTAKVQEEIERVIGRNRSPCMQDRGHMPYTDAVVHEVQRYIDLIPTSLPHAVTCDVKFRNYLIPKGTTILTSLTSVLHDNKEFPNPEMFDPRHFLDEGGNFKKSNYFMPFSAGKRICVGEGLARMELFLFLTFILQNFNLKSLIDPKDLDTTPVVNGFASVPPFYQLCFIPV
T3 sequence (P10635 whole entry): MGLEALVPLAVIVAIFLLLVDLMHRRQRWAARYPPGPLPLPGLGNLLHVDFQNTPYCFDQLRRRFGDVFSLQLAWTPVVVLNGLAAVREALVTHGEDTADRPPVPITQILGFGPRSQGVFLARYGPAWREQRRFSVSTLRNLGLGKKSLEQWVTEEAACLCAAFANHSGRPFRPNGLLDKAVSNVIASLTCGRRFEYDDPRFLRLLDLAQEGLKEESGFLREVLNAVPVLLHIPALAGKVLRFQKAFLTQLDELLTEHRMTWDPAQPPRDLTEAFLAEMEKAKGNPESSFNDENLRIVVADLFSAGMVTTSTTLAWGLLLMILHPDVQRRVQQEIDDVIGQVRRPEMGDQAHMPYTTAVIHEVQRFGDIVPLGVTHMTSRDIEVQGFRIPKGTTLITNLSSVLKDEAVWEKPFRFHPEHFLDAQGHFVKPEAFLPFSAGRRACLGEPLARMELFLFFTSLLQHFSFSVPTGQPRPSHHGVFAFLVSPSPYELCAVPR

For the molecule `C=CC(=O)N1[C@@H]2CC[C@H]1C[C@H](Oc1cc3c(Nc4ccc(Cl)c(Cl)c4F)ncnc3cc1OC)C2` [Example 8], the IC50 was 0.48 nM with OE19 cells, 0.47 nM in the data set on OE21 cell and 0.28 nM in the data set with NCI-N87 cell.

Turning to `C=CC(=O)N1[C@@H]2CC[C@H]1C[C@H](Nc1cc3c(Nc4ccc(Cl)c(Cl)c4F)ncnc3cc1OC)C2` [Example 38], 1.2 nM corresponded to half-maximal inhibition in the data set with OE19 cells (IC50). In addition, at CYP3A4, the IC50 is more than 50000 nM and the “inhibition of CYP enzyme CYP3A4” value was “no inhibitory activity”. In addition, in data set [1], the Tmax came to 2 h, the half-life was 3.2 h, the AUC(0-t) was 122 µM·h and the Cmax was found to be 10.6 µM. For the same molecule, it took 0.52 nM to reach half-maximal inhibition in the data set on OE21 cell (IC50). Moreover, at CYP2C19, inhibition was half-maximal at 11000 nM (IC50) and the “inhibition of CYP enzyme CYP2C19” value was “comparable to that of the reference compound Poziotinib”. Moreover, the IC50 in the data set with NCI-N87 cell turned out to be 0.46 nM. The half-maximal inhibitory concentration (IC50) on CYP2D6 worked out at 6000 nM. In addition, the “activity on CYP2D6, times better than that of the reference compound” value on CYP2D6 (versus Poziotinib) is listed as 6 times.

As for `C=CC(=O)N1CCC(Oc2cc3c(Nc4ccc(Cl)c(Cl)c4F)ncnc3cc2OC)CC1` [Poziotinib, reference compound], at CYP3A4, the IC50 is more than 50000 nM and the “inhibition of CYP enzyme CYP3A4” value is “no inhibitory activity”. In data set [1], the Tmax was 0.25 h, the half-life was 2.3 h, the AUC(0-t) came to 97.9 µM·h and the highest level (Cmax) was 17.3 µM. Moreover, the midpoint of inhibition on CYP2C19, the IC50, lay at 12000 nM. At CYP2D6, 1000 nM corresponded to half-maximal inhibition (IC50).
